As a reminder, the IC50 is the concentration at which inhibition is half-maximal.

Where only a bound is given, the exact number is not on record here.

The assay can be described thus: Inhibition of Bacillus anthracis lethal toxin-induced mouse RAW264.7 cell death preincubated for 1 hr followed by lethal toxin challenge measured after 4 hrs.
In turn, `Cc1cc(C)c(NC(=O)N/N=C/c2ccc(Br)cc2)c(C)c1` registered an IC50 of 12.6 µM.
As for `CCc1cccc(CC)c1NC(=O)N/N=C/c1ccc(Br)cc1`, the figure is over 12.5 µM; as for `Cc1cccc(C)c1NC(=O)N/N=C/c1ccc(Br)cc1`, 1.4 µM; as for `Cc1cccc(C)c1NC(=O)N/N=C/c1ccc(Br)cc1F`, 0.4 µM.
`Cc1cccc(C)c1NC(=O)N/N=C/c1ccc(Cl)cc1` displayed an IC50 of 1.7 µM. This IC50 is about 4.2-fold higher than that of the compound before.
`Cc1cccc(C)c1NC(=O)N/N=C/c1ccccc1F` came in with an IC50 of 8.2 µM.
As for `Cc1ccc(/C=N/NC(=O)Nc2c(C)cccc2C)cc1F`, the figure is 1.8 µM.
`Cc1cccc(C)c1NC(=O)N/N=C/c1ccc(F)cc1`: the IC50 worked out at 7 µM.
Next, `Cc1cccc(C)c1NC(=O)N/N=C/c1ccc(F)cc1F`: 2.1 µM.
As to `Cc1cccc(/C=N/NC(=O)Nc2c(C)cccc2C)c1`, the IC50 was 13.4 µM.
Next, `Cc1ccc(/C=N/NC(=O)Nc2c(C)cccc2C)cc1`: 2.9 µM.
Compound `CCc1ccc(/C=N/NC(=O)Nc2c(C)cccc2C)cc1` yielded an IC50 of 3 µM.
Compound `Cc1cccc(C)c1NC(=O)N/N=C/c1ccc(C(C)C)cc1` registered an IC50 of 6.5 µM.
`COc1ccc(/C=N/NC(=O)Nc2c(C)cccc2C)cc1` showed an IC50 of over 12.5 µM.
As to `C#Cc1ccc(/C=N/NC(=O)Nc2c(C)cccc2C)cc1`, the IC50 was 1.7 µM.
As for `Cc1cccc(C)c1NC(=O)N/N=C/c1ccc(I)cc1`, the IC50 amounted to 1.8 µM.
`Cc1cccc(C)c1NC(=O)N/N=C/c1ccc(C(F)(F)F)cc1` gave an IC50 of 2.6 µM.
As for `Cc1cccc(C)c1NC(=O)N/N=C/c1ccc(C#N)cc1`, the IC50 was found to be 2.5 µM. This IC50 and that of the compound before are within 1.5-fold of each other.
Next, `Cc1cccc(C)c1NC(=O)N/N=C/c1ccc(Br)o1`: over 25 µM; `Cc1cccc(C)c1NC(=O)N/N=C/c1cccs1`: over 25 µM; `Cc1cccc(C)c1NC(=O)N/N=C/c1ccc(Br)s1`: 1.7 µM.
As for `Cc1cccc(C)c1NC(=O)N/N=C/c1c(F)cc(Br)cc1F`, the figure is 4 µM; as for `Cc1cccc(C)c1NC(=O)N/N=C/c1ccc(Br)cc1Cl`, 3.2 µM; as for `Cc1cccc(C)c1NC(=O)N/N=C/c1ccc(Br)c(F)c1`, 1.5 µM.
As to `Cc1cccc(C)c1NC(=O)N/N=C/c1ccc(Br)c(Cl)c1`, the IC50 turned out to be 3.4 µM.
`C/C(=N\NC(=O)Nc1c(C)cccc1C)c1ccc(Br)cc1` had an IC50 of 2.5 µM.
For the compound `Cc1cccc(C)c1NC(=O)N(C)/N=C/c1ccc(Br)cc1`, half-maximal inhibition (IC50) required 2 µM.
For the compound `C#CCN(/N=C/c1ccc(Br)cc1)C(=O)Nc1c(C)cccc1C`, the IC50 is over 12.5 µM.
As to `Cc1cccc(C)c1NC(=S)N/N=C/c1ccc(Br)cc1`, the half-maximal inhibitory concentration (IC50) came out at 1.5 µM.
`Cc1cccc(C)c1NC(=O)N/N=C/c1ccc(N=[N+]=[N-])cc1F` showed an IC50 of 2.2 µM.
As for `Cc1cccc(C)c1NC(=O)N/N=C/c1ccc(N=[N+]=[N-])cc1`, the figure is 2.8 µM; as for `Cc1cccc(C)c1/N=C(\N)N/N=C/c1ccc(Br)cc1`, 13.8 µM.
Compound `Cc1cccc(C)c1NC(=O)N/N=C/c1c(F)c(F)c(N=[N+]=[N-])c(F)c1F` yielded an IC50 of over 25 µM.

Source of the values: BindingDB's records for doi:10.1021/ml400486k (University of California, 2014).
